Data from US20120309796A1, “BENZOCYCLOHEPTENE ACETIC ACIDS” (priority 2011, published 2012).

Experiments:
[1] = target: T1, human CRTH2 (Homo sapiens, UniProt Q9Y5Y4); experiment: Calcium Flux Assay Using Fluorometric Imaging Plate Reader (FLIPR); format: cell-based; parameters: expressed in transfected cells; host or cells: CHO-K1 previously transfected with G-alpha 16; conditions: CHO-K1 cells with G-alpha 16 and human CRTH2; inhibition of DK-PGD2 ligand-induced Ca2+ flux
T1 sequence (Q9Y5Y4 1-395): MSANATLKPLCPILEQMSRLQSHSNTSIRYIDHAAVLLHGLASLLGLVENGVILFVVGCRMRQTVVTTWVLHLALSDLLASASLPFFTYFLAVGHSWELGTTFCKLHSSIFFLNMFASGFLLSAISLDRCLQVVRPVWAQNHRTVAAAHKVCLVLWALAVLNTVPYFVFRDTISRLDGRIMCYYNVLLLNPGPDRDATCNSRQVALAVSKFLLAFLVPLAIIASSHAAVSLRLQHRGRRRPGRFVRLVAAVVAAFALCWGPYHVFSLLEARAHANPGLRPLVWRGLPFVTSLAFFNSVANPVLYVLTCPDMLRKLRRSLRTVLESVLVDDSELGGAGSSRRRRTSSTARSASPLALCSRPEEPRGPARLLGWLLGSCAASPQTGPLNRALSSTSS
Method: CHO-K1 cells previously transfected with G-alpha 16 were subsequently transfected with the human CRTH2 receptor and the neomycin resistance gene. Following selection in 800 μg/mL G418 (geneticin), individual clones were assayed for their receptor expression based on staining with an anti human CRTH2 IgG, followed by assaying for their response to 13,14-dihydro-15-keto Prostaglandin D2 (DK-PDG2) (ligand) in the Ca^2+ Flux assay. Positive clones were then cloned by limiting dilution cloning. The transfected cells were cultured in Ham's F-12 medium supplemented with 10% fetal bovine serum, 2 mM glutamine, 100 U/mL penicillin/100 μg/mL streptomycin, 200 μg/mL hygromycin B, and 800 μg/mL G418 (geneticin). Cells were harvested with trypsin-EDTA (trypsin-ethylenediaminetetraacetic acid) and counted using ViaCount® reagent (from Guava Technologies, Inc. which contains two DNA-binding dyes that enable the reagent user to distinguish between viable and non-viable cells). The cell suspension volume was adjusted to 2.5×10^5 cells/mL with complete growth media. Aliquots of 50 μL were dispensed into BD Falcon™ 384 well black/clear microplates (from BD Biosciences, a division of Becton, Dickinson and Company) and the microplates were placed in a 37° C. CO2 incubator overnight. The following day, the microplates were used in the assay.
Loading Buffer containing dye (from the FLIPR® Calcium 3 Assay Kit from Molecular Devices, a division of MDS Analytical Technologies and MDS Inc.) was prepared by dissolving the contents of one bottle into 200 mL Hank's Balanced Salt Solution containing 20 mM HEPES (4-(2-hydroxyethyl)-1-piperazineethanesulfonic acid) and 2.5 mM probenecid. Growth media was removed from the cell plates and 25 μL of Hank's Balanced Salt Solution (HBSS) containing 20 mM HEPES, 0.05% BSA and 2.5 mM probenecid was added to each well followed by 25 μL of diluted dye using a Multidrop dispenser. The plates were then incubated for 1 hour at 37° C.
During the incubation, test compound plates were prepared by adding 90 μL of HBSS/20 mM HEPES/0.005% BSA buffer to the 2 μL of serial diluted compounds. To prepare serial diluted compounds, 20 mM stocks of compounds were dissolved in 100% DMSO. The compound dilution plate was set up as follows: well #1 received 5 μL of compound plus 10 μL of DMSO. Wells 2-10 received 10 μL of DMSO. 5 μL was mixed and transferred from well #1 into well #2. 1:3 serial dilutions were continued out 10 steps. 2 μl of diluted compound was transferred into duplicate wells of a 384 well “assay plate” and then 90 μL of buffer was added.
After incubation, both the cell and “assay plate” plates were brought to the fluorometric imaging plate reader (FLIPR®) and 20 μL of the diluted compounds were transferred to the cell plates by the FLIPR®. Plates were then incubated for 1 hour at room temperature. After the 1 hour incubation, plates were returned to the FLIPR® and 20 μL of 4.5× concentrated ligand was added to the cell plates. During the assay, fluorescence readings were taken simultaneously from all 384 wells of the cell plate every 1.5 seconds. Five readings were taken to establish a stable baseline, then 20 μL of sample was rapidly (30 μL/sec) and simultaneously added to each well of the cell plate. The fluorescence was continuously monitored before, during and after sample addition for a total elapsed time of 100 seconds. Responses (increase in peak fluorescence) in each well following agonist addition were determined. The initial fluorescence reading from each well, prior to ligand stimulation, was used as a zero baseline value for the data from that well. The responses were expressed as % inhibition of the buffer control. […]

[2] = target: T1, human CRTH2; experiment: Human CRTH2 Receptor Binding Assay (whole cell, [3H]ramatroban competition); parameters: two mammalian expression vectors that harbored human CRTH2 and G-alpha16 cDNAs; expressed in transfected cells; conditions: CHO-K1 cells expressing human CRTH2 and G-alpha16; 20 nM [3H]ramatroban; 1 hour, room temperature
From the text: A whole cell receptor binding assay using [^3H]ramatroban as the competing radioactive ligand was employed to evaluate the compound binding activity to human CRTH2. The radioactive ligand [^3H]ramatroban was synthesized according to Sugimoto et. al. (Eur. J. Pharmacol. 2005, 524, 30-37) to a specific activity of 42 Ci/mmol
A cell line stably expressing human CRTH2 was established by transfecting CHO-K1 cells with two mammalian expression vectors that harbored human CRTH2 and G-alpha16 cDNAs, respectively, using FuGene® 6 transfection reagent (from Roche). Stable clones expressing CRTH2 were selected by staining each clone with BM16 (BD Pharmingen™ from BD Biosciences, a division of Becton, Dickinson and Company), which is a rat monoclonal antibody to human CRTH2. The cells were maintained as monolayer cultures in Ham's F-12 medium containing 10% fetal bovine serum, 100 units/mL penicillin, 100 μg/mL streptomycin, 2 mM glutamine, 0.5 mg/mL G418 (geneticin) for CRTH2, and 0.2 mg/mL hygromycin-B (for G-alpha 16). For whole cell receptor binding assay, the monolayer cells were rinsed once with PBS (phosphate buffered saline), dissociated using ethylenediaminetetraacetate (Versene™ EDTA from Lonza Inc.), and suspended in PBS containing 10 mM MgCl2 and 0.06% BSA (bovine serum albumin) at 1.5×10^6 cells/mL.
The binding reactions (0.2 mL) were performed in 96-well plates at room temperature in PBS containing 1.5×10^5 cells, 10 mM MgCl2, 0.06% BSA, 20 nM [^3H]ramatroban, and test compound at various concentrations. After 1 hour of binding reactions, the cells were harvested on GF™/B filter microplates (microtiter plates with embedded glass fiber from PerkinElmer, Inc.) and washed 5 times with PBS using a Filtermate™ Harvester (a cell harvester that harvests and washes cells from microplates from PerkinElmer, Inc.). The radioactivities bound to the cells were determined using a microplate scintillation counter (TopCount® NXT, from PerkinElmer, Inc.) after adding 50 μL of Microscint™ 20 scintillation fluid (from PerkinElmer, Inc.) to each well of the filter plates. The radioactivity from non-specific binding was determined by replacing compound with 10 μM of 15(R)-15-methyl PGD2 (from Cayman Chemical Company) in the reaction mixtures. The radioactivity bound to the cells in the absence of compound (total binding) was determined by replacing compound with 0.25% of DMSO (dimethyl sulfoxide) in the reaction mixture. Specific binding data were obtained by subtracting the radioactivity of non-specific binding from each binding data.
The IC50 value is defined as the concentration of the tested compound that is required for 50% inhibition of total specific binding. In order to calculate the IC50 value, the percent inhibition data were determined for 7 concentrations for each compound. The percent inhibition for a compound at each concentration was calculated according to the following formula, [1-(specific binding in the presence of compound)/(total specific binding)]×100. The IC50 value was then obtained by fitting the percent inhibition data to a sigmoidal dose-response (4 parameter logistic) model in the XLfit® software Excel add-in program [from ID Business Solutions Ltd., model 205, where F(x)=(A+(B−A)/(1+((C/x)̂D)))].

| IC50 [1] [nM] | IC50 [2] [nM] | Compound |
| --- | --- | --- |
| 29.2 | 178 | O=C(O)COc1cccc2c1CCCCC2NS(=O)(=O)c1ccc(-c2cccc(C(F)(F)F)c2)cn1 (stereo not drawn) [Example 33, {5-[5-(3-Trifluoromethyl-phenyl)-pyridine-2-sulfonylamino]-6,7,8,9-tetrahydro-5H-benzocyclohepten-1-yloxy}-acetic acid] |
| 4310 | 457 | CN(C1CCCCc2c(OCC(=O)O)cccc21)S(=O)(=O)c1ccc(-c2cccc(C(F)(F)F)c2)cn1 (stereo not drawn) [Example 34, (5-{Methyl-[5-(3-trifluoromethyl-phenyl)-pyridine-2-sulfonyl]-amino}-6,7,8,9-tetrahydro-5H-benzocyclohepten-1-yloxy)-acetic acid] |
| 214 | 17 | O=C(O)COc1cccc2c1CCCCC2NS(=O)(=O)c1ccc(-c2cccc(CCO)c2)cn1 (stereo not drawn) [Example 37, (5-{5-[3-(2-Hydroxy-ethyl)-phenyl]-pyridine-2-sulfonylamino}-6,7,8,9-tetrahydro-5H-benzocyclohepten-1-yloxy)-acetic acid] |

Continued, compound first:

| Compound | IC50 [1] [nM] | IC50 [2] [nM] |
| --- | --- | --- |
| Cc1cc(-c2ccc(S(=O)(=O)NC3CCCCc4c(OCC(=O)O)cccc43)nc2)cc(C(C)(C)C)c1 (stereo not drawn) [Example 35, {5-[5-(3-tert-Butyl-5-methyl-phenyl)-pyridine-2-sulfonylamino]-6,7,8,9-tetrahydro-5H-benzocyclohepten-1-yloxy}-acetic acid] | 140 | 17.9 |
| Cc1cc(-c2ccc(S(=O)(=O)N(C)C3CCCCc4c(OCC(=O)O)cccc43)nc2)cc(C(C)(C)C)c1 (stereo not drawn) [Example 36, (5-{[5-(3-tert-Butyl-5-methyl-phenyl)-pyridine-2-sulfonyl]-methyl-amino}-6,7,8,9-tetrahydro-5H-benzocyclohepten-1-yloxy)-acetic acid] | 784 | 164 |
| CC(C)c1cccc(-c2cccc(S(=O)(=O)NC3CCCCc4c(OCC(=O)O)cccc43)c2)c1 (stereo not drawn) [Example 41, [5-(3′-Isopropyl-biphenyl-3-sulfonylamino)-6,7,8,9-tetrahydro-5H-benzocyclohepten-1-yloxy]-acetic acid] | > 5000 | 226 |
